# Results as given in US20080145840A1 (priority 2003, published 2008).
# Values joined by “and” are separate entries in the source; they are usually repeats but may differ in a detail not shown here. Equal entries are not always repeated. Where two headings read alike, the source gives them in different places.
# Columns and labels:
# [1] = target: T1, E. coli GyrAB (Escherichia coli, UniProt P0AES6); test: ITC assay of E. coli GyrAB ATPase activity; assay type: biochemical; conditions: read-out: Ki, ADP
# Procedure: The titration was started manually after the DP signal was stabilized.
# The data were analyzed as follows: the power value (μcal/sec) after each injection is subtracted from the initial power value (before any injection occurs).
# [2] = target: T1, E. coli GyrAB; test: Independent assay of GyrAB enzyme activity using phosphate detection; assay type: biochemical; conditions: read-out: Ki, ADP
# [3] = target: T2, E. coli MurC (Escherichia coli, UniProt P17952); test: biochemical
# T2 sequence (P17952 whole entry): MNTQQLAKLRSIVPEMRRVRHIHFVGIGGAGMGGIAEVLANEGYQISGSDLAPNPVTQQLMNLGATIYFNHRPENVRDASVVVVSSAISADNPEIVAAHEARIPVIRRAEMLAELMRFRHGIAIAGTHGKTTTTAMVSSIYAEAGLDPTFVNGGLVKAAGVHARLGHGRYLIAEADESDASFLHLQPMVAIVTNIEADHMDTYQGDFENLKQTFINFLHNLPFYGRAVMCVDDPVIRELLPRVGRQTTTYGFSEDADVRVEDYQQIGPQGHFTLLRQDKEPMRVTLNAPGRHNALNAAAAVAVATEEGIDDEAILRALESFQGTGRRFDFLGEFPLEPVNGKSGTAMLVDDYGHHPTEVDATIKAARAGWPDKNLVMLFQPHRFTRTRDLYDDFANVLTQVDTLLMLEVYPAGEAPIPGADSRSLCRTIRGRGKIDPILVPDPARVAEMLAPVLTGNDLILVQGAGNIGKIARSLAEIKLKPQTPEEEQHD
# Procedure: E. coli MurC was diluted in assay buffer (50 mM Tris pH 8.0, 1 mM Tris (2-carboxyethyl) phosphine hydrochloride (TCEP), 0.01% (w/v) Triton X-100, 20 mM ammonium formate) to a final concentration of 10 nM. […] The titration was started manually after the DP signal was stabilized. A total of 16 injections (2, 2, 4, 4, 4, 4, 8, 8, 16, 16, 32, 32, 32, 32, 32, and 32 μl) were performed. Time spacing in between injections was set at 120 sec for all injections.
# All the reactions were carried in 50 mM Tris, pH 8.0, 1 mM TCEP, 0.01% (w/v) Triton, and 20 mM ammonium formate. The final concentration of E. coli MurC was 10 nM. […] The reaction was initiated with the addition of MurC and placed into the test cell. AMP-PCP was dissolved in the buffer described above at a final concentration of 2.8 mM and placed into the titration syringe.
# [4] = target: T2, E. coli MurC; test: biochemical; remark: listed apart in the source
# [5] = target: T3, E. coli MurB (Escherichia coli, UniProt P08373); test: ITC assay of E. coli MurB activity; assay type: biochemical
# T3 sequence (P08373 whole entry): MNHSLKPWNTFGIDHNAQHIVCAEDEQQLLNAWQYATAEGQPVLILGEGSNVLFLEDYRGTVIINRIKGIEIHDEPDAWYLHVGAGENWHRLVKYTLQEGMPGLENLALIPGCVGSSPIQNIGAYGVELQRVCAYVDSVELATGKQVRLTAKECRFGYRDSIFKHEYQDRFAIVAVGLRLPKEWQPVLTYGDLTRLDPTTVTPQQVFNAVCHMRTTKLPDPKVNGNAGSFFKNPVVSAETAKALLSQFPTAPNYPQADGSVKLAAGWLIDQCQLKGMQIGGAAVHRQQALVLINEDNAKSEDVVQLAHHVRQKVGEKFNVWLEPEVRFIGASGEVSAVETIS
# Procedure: E. coli MurB was diluted in assay buffer (50 mM Tris pH 8.0, 1 mM TCEP, 20 mM KCl, 0.005% Triton X-100) to a final concentration of 1.3 nM. The buffer contained the MurB substrates at the following concentrations in the ITC test cell: 100 μM NADPH and 60 μM UDP-GlcNAc-EP. DMSO was also added at a final concentration of 2.7% (v/v).
# (§1) The inhibition of E. coli MurB by (2R)-2-{2-[3-(4-tert-butylphenoxy)phenyl]-4-oxo-1,3-thiazolidin-3-yl} hexanoic acid, a 4-thiazolidinone compound, was studied by the same method. Reactions were carried in 50 mM Tris, pH 8.0, 1 mM TCEP, 20 mM KCl, 0.005% Triton, in the presence of 100 μM NADPH and 60 μM EP. The concentration of MurB was 1.3 nM.
# [6] = target: T3, E. coli MurB; test: Absorbance method measuring NADPH depletion at 340 nm (MurB activity); assay type: biochemical
# Procedure: as §1
# Other kinetic measurements were performed to further characterize E. coli MurB by ITC.
smiles,measurement,setting,value
Nc1ncnc2c1ncn2[C@@H]1O[C@H](COP(=O)(O)OP(=O)(O)O)[C@@H](O)[C@H]1O [ADP],Ki,[1],18 µM
same,Ki,[2],18 µM
CC(=O)N[C@H]1[C@@H](OP(=O)(O)OP(=O)(O)OC[C@H]2O[C@@H](n3ccc(=O)[nH]c3=O)[C@H](O)[C@@H]2O)O[C@H](CO)[C@@H](O)[C@@H]1O[C@H](C)C(=O)O [UDP-MurNAc],Km,"[3]; ITC, read-out: KM, UDP-MurNAc",21 µM
same,Km,"[4]; Phosphate detection, read-out: KM, UDP-MurNAc",19 µM
"CCCC[C@H](C(=O)O)N1C(=O)CSC1c1cccc(Oc2ccc(C(C)(C)C)cc2)c1 (stereo partly drawn) [4-thiazolidinone analogue, (2R)-2-{2-[3-(4-tert-butylphenoxy)phenyl]-4-oxo-1,3-thiazolidin-3-yl} hexanoic acid]",IC50,"[5]; 1.3 nM MurB, 100 μM NADPH, 60 μM UDP-GlcNAc-EP, read-out: 4-thiazolidinone analogue IC50",154 µM
same,IC50,"[6]; NADPH depletion at 340 nm, read-out: 4-thiazolidinone analogue IC50",101 µM
NC(=O)C1=CN([C@@H]2O[C@H](COP(=O)(O)OP(=O)(O)OC[C@H]3O[C@@H](n4cnc5c(N)ncnc54)[C@H](OP(=O)(O)O)[C@@H]3O)[C@@H](O)[C@H]2O)C=CC1 [NADPH],Km,"[5]; read-out: KM, NADPH",9 µM
same,Km,"[6]; read-out: KM, NADPH",9 µM
"C=C(O[C@H]1[C@H](O)[C@@H](CO)O[C@H](OP(=O)(O)OP(=O)(O)OC[C@H]2O[C@@H](n3ccc(=O)[nH]c3=O)[C@H](O)[C@@H]2O)[C@@H]1NC(C)=O)C(=O)O [UDP-GlcNAc−EP, uridine diphosphate-GlcNAc-enolpyruvate]",Km,"[5]; read-out: KM, UDP-GlcNAc-EP",8 µM
same,Km,"[6]; read-out: KM, UDP-GlcNAc-EP",6 µM
"Nc1ncnc2c1ncn2[C@@H]1O[C@H](COP(=O)(O)OP(=O)(O)CP(=O)(O)O)[C@@H](O)[C@H]1O [AMP-PCP, β,γ-Methyleneadenosine 5′-triphosphate]",IC50,[3],27 µM
same,IC50,[4]; AMP-PCP IC50,40 µM and 35 µM
